# Laboratory results as given in PubChem BioAssay AID1322 (NMMLSC, 2008).
# Calls of active or inactive are those of the source. No rule for the calls is given here.
# Molecular target: Bcl-2-like protein 1 (Homo sapiens) (UniProt Q07817)
# Experiment: Bim-Bcl-XL interaction inhibitors, potency, dose response, biochemical, multiplexed, bead flow cytometry, human Bcl-XL (AID 1322); as to inhibition: test concentration not given here
# Conditions: Bead-based flow cytometry, Bim peptide-Bcl-XL binding, MCF
# Sequence of Bcl-2-like protein 1 (Homo sapiens) (Q07817 whole entry, looked up): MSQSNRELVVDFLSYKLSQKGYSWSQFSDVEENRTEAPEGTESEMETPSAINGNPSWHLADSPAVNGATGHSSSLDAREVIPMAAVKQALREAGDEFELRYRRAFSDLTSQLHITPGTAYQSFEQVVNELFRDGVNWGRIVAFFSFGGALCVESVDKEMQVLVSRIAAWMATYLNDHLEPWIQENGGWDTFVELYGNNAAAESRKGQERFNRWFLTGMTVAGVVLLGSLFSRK
row,SMILES,outcome
1,O=C1c2ccccc2C(=O)c2cc(S(=O)(=O)Nc3ccccc3)ccc21,inactive
2,O=C(c1cnccn1)N(Cc1cccs1)C1(C(=O)NC2CCCCC2)CCCCC1,inactive
3,COc1ccc(/C=C/C(=O)c2cc(Br)ccc(=O)c2O)cc1,inactive
4,CCOC(=O)N1CCC(c2cc(=O)n(-c3ccccc3)[nH]2)CC1,inactive
5,OCCC1CN(Cc2ccc3ncccc3c2)CCN1Cc1ccccc1 (stereo unspecified),inactive

# Same assay, conditions: Bead-based flow cytometry, Bim peptide-Bcl-XL binding, MCF
row,SMILES,inhibition
1,CCN1/C(=C/c2ccc3cc(C)ccc3[n+]2CC)Sc2cc(C)c(C)cc21,inactive
2,Fc1ccc(C2=Nn3c(Cc4ccccc4F)nnc3SC2)cc1,inactive
3,COc1ccccc1Nc1nc(-c2c(C)nc3ncccn23)cs1,inactive
4,Cn1c(=O)[nH]c(=O)c2c1nc(N1CCOCC1)n2CCSc1nc2ccccc2[nH]1,inactive
5,COc1ccccc1C1=Nc2cccc3cccc(c23)N1,inactive
6,Fc1ccc(/C=C2\CCCC3=C2NC(=S)NC3c2ccc(F)cc2)cc1 (stereo unspecified),inactive
7,O=C(O)C1=C[C@H](C2CC2)C[C@H](OCCCCO)O1,inactive
8,CCNCc1cc(Br)c(OCC(=O)Nc2ccccc2)c(OC)c1,inactive
9,Cc1ccc(-c2nc(N3CCOCC3)s[n+]2-c2ccccc2)cc1,inactive
10,COc1ccc2nc(-c3ccco3)c(-c3ccco3)nc2c1,inactive
11,COc1cc(/C=C2\S/C(=N/S(=O)(=O)c3ccc(C)cc3)NC2=O)c([N+](=O)[O-])cc1OC,inactive
12,Cc1ccc(-c2cc(-c3ccc(Cl)cc3)c(C#N)c(N)n2)o1,inactive
13,O=C1C(=O)c2ccc(-c3ccccc3)cc2-c2ccccc21,inactive
14,CCOC(=O)C1=C(CP(=O)(c2ccccc2)c2ccccc2)NC(=O)NC1c1ccc(OC)cc1 (stereo unspecified),inactive
15,CCC(=O)NC(c1ccc(C)cc1)c1cc([N+](=O)[O-])c2cccnc2c1O (stereo unspecified),inactive
16,COCc1cc(CN2CCCC(CNC(=O)c3ccc(F)cc3)C2)ccc1OC (stereo unspecified),inactive
17,CC(C)(C)OC(=O)N1CCN(C(=O)[C@H](Cc2ccc(O)cc2)n2cc(CCO)nn2)CC1,inactive
18,CN=c1scc(-c2cccs2)n1/N=C/c1ccc(O)c(O)c1O,inactive

row,SMILES,inhibition
1,CN(C)c1ccc(Nc2nc(-c3cccnc3)cs2)cc1,inactive
2,CN1C2C=C3C(C#N)=C(N)C(C#N)(C#N)[C@@H](c4ccsc4)[C@@H]3C1CC2 (stereo partly specified),inactive
3,O=C(COc1ccccc1Br)NCc1ccccn1,inactive
4,Cc1ccc(NC(=O)C/C(N)=N/OC(=O)c2ccccc2)cc1,inactive
5,COc1cc(N2CCOCC2)ccc1C=C1C(=O)NC(=O)NC1=O,inactive
6,COc1ccc(NC(=O)COc2ncnc3ccccc23)cc1S(=O)(=O)N1CCOCC1,inactive
7,CC1=CC(=O)c2c(O)ccc(O)c2C1=O,inactive
8,O=C(NCCc1ccccc1)c1ccc2nc(-c3ccco3)c(-c3ccco3)nc2c1,inactive
9,COc1ccc(Cc2c(O)nc(SC)n(C(C)=O)c2=O)cc1,inactive
10,COc1ccc(/C=C/C(=O)Nc2sc(Cc3ccccc3)c(C)c2C(N)=O)cc1,inactive
11,COC(=O)c1ccc(-n2nnnc2SCC(=O)Nc2cc(OC)ccc2OC)cc1,inactive
12,OC(COc1ccc2cc(Br)ccc2c1)CN1CCOCC1 (stereo unspecified),inactive
13,COc1cc(/C=C2/NC(=O)N(Cc3ccccc3F)C2=O)cc(OC)c1O,inactive
14,S=c1[nH]cc(-c2ccccc2)n1-c1ccccc1Cl,inactive
15,O=C(c1cnccn1)N1CCN(c2ccccc2F)CC1,inactive
16,CCOC(=O)/C(=C\c1ccc(Cl)cc1)c1nc2sc(C)c(C)c2c(=O)[nH]1,inactive
17,COc1cccc(-n2nnnc2SCC(=O)Nc2cccc(NC(C)=O)c2)c1,inactive
18,CC(C)CNC(=O)c1cccc(NC(=O)c2ccc(Cl)c([N+](=O)[O-])c2)c1,inactive
